Literature values in patent publication US20200020419A1, “METHODS OF ANALYZING CELLS” (Flagship Pioneering Innovations VI, LLC., priority 2018, published 2020).

## Cc1ccc(-c2nn(C(C)(C)C)c3ncnc(N)c23)cc1 [PP1]
Mouse “progenitor” cell
  induction of transition of a mouse progenitor cell into a mouse neuron, known in the literature: known in the literature to be associated with induction of transition of a mouse “progenitor” cell into a mouse neuron

## CC(C)(C)n1nc(-c2ccc(Cl)cc2)c2c(N)ncnc21 [PP2]
Mouse “progenitor” cell
  induction of transition of a mouse progenitor cell into a mouse neuron, known in the literature: known in the literature to be associated with induction of transition of a mouse “progenitor” cell into a mouse neuron

## CC(/C=C/C(=O)NO)=C\[C@@H](C)C(=O)c1ccc(N(C)C)cc1 [Trichostatin A]
MEF
  induction of transition of a MEF into a mouse progenitor cell, known in the literature: known in the literature to be associated with induction of transition of a MEF into a mouse “progenitor” cell
